Laboratory results from US20020107202A1, “Synthetic complementary peptides and ophthalmologic uses thereof” (priority 1999, published 2002).
No end group written: not given here.

Assays:
[1] = tested on: PMN activated by ultrafiltered tripeptide chemoattractants; experiment: Polarization assay: inhibition of PMN polarization activated by alkali-degraded rabbit corneal ultrafiltrate; format: cell-based, human
Experimental: (§1) Following the technique of Ferrante and Thong^13, polymorphonuclear leukocytes were isolated from fresh heparinized human whole blood by centrifugation on Hypaque-Ficoll (density=1.114) according to a described method^14. […] Purified polymorphonuclear leukocytes were used in the polarization assay. All incubation mixtures were maintained between an osmolality of 280 to 320, a pH range of 7.2 to 7.6, 15 mM phosphate buffer, and 50 μM Ca^2+ and 50 μM Mg^2+.
(§2) The polarization assay^15 was performed in a blind fashion. This assay was used to determine the polymorphonuclear leukocyte response to chemoattractants and inhibitors by measuring the frequency and degree of cellular shape change. Briefly, 2×10^5 polymorphonuclear leukocytes were mixed with preincubated synthetic complementary peptides and chemoattractants in a reaction chamber (total volume=100 μl) at 37° C. for 5 min. At the end of the incubation period an aliquot was collected and mixed with an equal volume of 4% glutaraldehyde for microscopic observation. The remaining volume of each cell suspension was immediately centrifuged at 15,000× g for 5 seconds to remove cells. […] Polymorphonuclear leukocytes in each sample were observed microscopically and assigned scores of 0 (resting=spherical cell with a smooth membrane), 1 (activated=irregular cell with uneven membranes) or 2 (polarized=cell length≧width×2). Scores of 100 polymorphonuclear leukocytes for each sample were added to produce a polarization index. A dose response was performed for each chemoattractant. A concentration of each chemoattractant was chosen from the linear portion of each dose response curve and used as the positive control. Negative control samples consisted of polymorphonuclear leukocytes in HBSS only. […] The Student's t-test (unpaired) was used to analyze the differences in the mean polarization response between polymorphonuclear leukocytes activated with the chemoattractant in the absence or presence of complementary peptides.

[2] = tested on: alkali-injured rabbit eye; experiment: Alkali-injury model, corneal ulceration; format: in vivo
Experimental: Animals were maintained and treated in full compliance with the Association for Research in Vision and Ophthalmology (ARVO) Resolution on the Use of Animals in Research. Forty-eight New Zealand Dutch strain albino rabbits (Myrtles Rabbitry, Thompson Station, Tenn., U.S.A.) weighing 2.0 to 2.5 kg were anesthetized with ketamine HCl (12 mg/kg) and xylazine (7.5 mg/kg). Two drops of topical proparacaine (Allergan, Hormigueros, Puerto Rico) were placed in the right eye of each rabbit. Following ocular proptosis, a 12 mm plastic well was centered on the cornea and 0.4 ml of 1 N NaOH instilled into the well and left for a period of 35 sec. The alkali was aspirated and the well irrigated with 10 ml of physiological saline. Erythromycin ointment (0.5%) was applied two times a day and study medications given by the technique of Fraunfelder. Double blind examinations (slit lamp and dissecting microscopy) were conducted on Monday, Wednesday and Friday with photographs on Wednesday. Evaluation was made for the presence and size of epithelial defects, corneal ulceration, perforation and vascularization. Animals were randomly subdivided into two groups of 16 eyes each: 1) Phosphate buffered saline (PBS) control and 2) 800 μM (D)-RTR tetramer in PBS or 1.5 mM (L)-RTR tetramer in PBS alternating every hour. Each animal received one drop of the appropriate medication every hour for 14 hours a day for 33 days and dropping was discontinued until the end of the experiment on day 42.

resting PMNs = experiment: Polarization assay: substance alone on resting PMNs (agonist activity, chemoattractant response); format: cell-based, human; details: none up to the given concentration
Experimental: (§3) Following the technique of Ferrante and Thong^13, polymorphonuclear leukocytes were isolated from fresh heparinized human whole blood by centrifugation on Hypaque-Ficoll (density=1.114) according to a described method^14. Isolated polymorphonuclear leukocytes (96-99% viability) were resuspended in HBSS with 15 mM phosphate buffer at room temperature and gently agitated on a shaker. The purity of this cell suspension was ≧85% polymorphonuclear leukocytes, ≦5% mononuclear cells and platelets, with the remaining percentage consisting of red blood cells. Purified polymorphonuclear leukocytes were used in the polarization assay. All incubation mixtures were maintained between an osmolality of 280 to 320, a pH range of 7.2 to 7.6, 15 mM phosphate buffer, and 50 μM Ca^2+ and 50 μM Mg^2+.
The polarization assay^15 was performed in a blind fashion. This assay was used to determine the polymorphonuclear leukocyte response to chemoattractants and inhibitors by measuring the frequency and degree of cellular shape change. Briefly, 2×10^5 polymorphonuclear leukocytes were mixed with preincubated synthetic complementary peptides and chemoattractants in a reaction chamber (total volume=100 μl) at 37° C. for 5 min. At the end of the incubation period an aliquot was collected and mixed with an equal volume of 4% glutaraldehyde for microscopic observation. The remaining volume of each cell suspension was immediately centrifuged at 15,000× g for 5 seconds to remove cells. The resulting supernatant was analyzed for lactic dehydrogenase activity.^16 All incubations generated lactate dehydrogenase activity correlating with <5% cell death. Polymorphonuclear leukocytes in each sample were observed microscopically and assigned scores of 0 (resting=spherical cell with a smooth membrane), 1 (activated=irregular cell with uneven membranes) or 2 (polarized=cell length≧width×2). Scores of 100 polymorphonuclear leukocytes for each sample were added to produce a polarization index. A dose response was performed for each chemoattractant. […]

LTB4 activated PMN = experiment: Polarization assay: inhibition of LTB4 activated PMN polarization; format: cell-based, human
Experimental: LTB4 was dissolved in ethanol and diluted with HBSS (pH 7.3) to a final ethanol concentration of 0.001%. Synthetic complementary peptides and synthetic chemoattractants were dissolved in HBSS (pH 7.3). When necessary, the osmolality was adjusted between 280 and 320 mOsm by adding a small amount of distilled water.
as §3
The polarization assay^15 was performed in a blind fashion. […] The resulting supernatant was analyzed for lactic dehydrogenase activity.^16 All incubations generated lactate dehydrogenase activity correlating with <5% cell death. […]

[3] = tested on: N-acetyl-PGP activated PMN; experiment: Polarization assay: inhibition of N-acetyl-PGP activated PMN polarization; format: cell-based, human; details: for inhibitory properties against N-acetyl-PGP, fold less than the RTR dimer: comparison of ID50 values
Experimental: as §1, §2

[4] = day 42, 16 eyes, topical drops to day 33

Substance	inhibition of PMNs activated by the ultrafiltered tripeptide chemoattractants, in words [1]	TOTAL ULCERS End of expt (day 42) (number) ([2]; 16 eyes, day 42)	TOTAL ULCERS End of expt (day 42) (percent of eyes) ([2]; 16 eyes, day 42) [%]	TOTAL ULCERS During expt (number) ([2]; 16 eyes, during experiment)	TOTAL ULCERS During expt (percent of eyes) ([2]; 16 eyes, during experiment) [%]	incidence of corneal ulcers after alkali-injury, in words ([2]; compared to PBS group)	number of ulcers ([2]; day 33, 16 eyes, 800 μM (D)- and 1.5 mM (L)-RTR tetramer drops alternating every hour) [ulcers]	ULCER DEPTH: Anterior (eyes) [2, 4]	ULCER DEPTH: Descemetocele (eyes) [2, 4]	ULCER DEPTH: Middle (eyes) [2, 4]	ULCER DEPTH: No Ulcer (eyes) [2, 4]	ULCER DEPTH: Perforation (eyes) [2, 4]	ULCER DEPTH: Posterior (eyes) [2, 4]	Agonist Activity (resting PMNs)	antagonism of LTB4 activation of PMNs, in words (LTB4 activated PMN)	affinity for N-acetyl-PGP, fold greater than the RTR monomer [3]	inhibition of N-acetyl-PGP activated PMN polarization, in words [3]	inhibitory properties against N-acetyl-PGP, fold less than the RTR dimer [3] [fold]
((H2N-Arg-Thr-Arg-Gly-Gly)2-Lys)2-Lys-Ala-CONH2 (H-RTRGG; also: tetrameric Lys-branched, on Lys-Ala-CONH2 core) [RTR tetramer]	inhibited	6	37.5	7	43.8	statistically significant reduction in the frequency of corneal ulceration	4	4	1	0	9	0	2	None, ≦ 8 mM	no effect on LTB4	10,000 fold	–	–
Arg-Thr-Arg [RTR]	inhibited	–	–	–	–	–	–	–	–	–	–	–	–	None, ≦ 40 mM	–	–	only antagonistic at millimolar concentrations	20
RTRGG	inhibited	–	–	–	–	–	–	–	–	–	–	–	–	None, ≦ 40 mM	–	–	only antagonistic at millimolar concentrations	20
